Source: patent US4342766A, “Novel dihydro-as-triazino[5,6-c]quinoline derivatives and a process for the preparation thereof” (priority 1980, dated 1982)

How the values were obtained:
[1] = in vivo; details: mouse, mice, female and male, 18 to 24 g, oral
Experimental: The acute toxicity of the compounds of the formula I was determined on both female and male mice weighing 18 to 24 g. The compounds were administered orally.

[2] = Analgesic effect, acetic acid writhing test on mice; details: for ED50: Mus musculus, po, read-out: Analgesic effect ED50 p.o.; for Therapeutic index LD50/ED50 (analgesic effect): mice, p.o., acetic acid writhing
Experimental: The analgesic effect was studied by means of the acetic acid writhing test on mice. After the intraperitoneal administration of 0.4 ml of 0.5 percent acetic acid, the writhing responses were counted between the fifth and tenth minutes. The writhing number was calculated as the percentage of the control value. The compounds tested were orally administered to the animals 1 hour prior to the treatment with acetic acid. […] Paracetamole and phenylbutazone were used as reference substance.

[3] = Narcosis potentiating effect (hexobarbital sleeping time); type: in vivo, mice; details: for ED50: Mus musculus, read-out: Narcosis potentiating effect ED50 p.o.; for Therapeutic index LD50/ED50 (narcosis potentiating effect): p.o., hexobarbital
Experimental: The narcosis potentiating effect of the novel compounds of the formula I was tested on groups consisting of 6 mice each. The animals belonging to the control group received an oral dosage of 20 ml/kg of 0.9 percent aqueous sodium chloride solution, whereas the other animals were treated orally with the compound to be tested.

[4] = Antiphlogistic effect, carrageenin paw test on rats (method of Winter); details: for ED50: Rattus norvegicus, po, 3 h, read-out: Antiphlogistic effect ED50 p.o.; for Therapeutic index LD50/ED50 (antiphlogistic effect): p.o., carrageenin paw test on rats, LD50 from mice
Experimental: The antiphlogistic effect of the novel compounds of the invention was investigated on rats by the method of Winter [J. Pharm. […] 0.1 ml of a 1 percent carrageenin suspension was injected, subcutaneously, into the plantar region of one of the hind paws. The compounds to be tested were administered orally into the animals 1 hour before the injection of the carrageenine suspension. The volume of the treated paw was measured by mercury-plethysmometer before and 3 hours after injection.

[5] = Anticonvulsive effect, inhibition of the spasm provoked by electroshock; type: in vivo, white mice; details: for ED50: Mus musculus, white mice, oral 1 hour prior to electroshock (45 mA, 50 Hz, 0.4 sec), read-out: Inhibition of the spasm provoked by electroshock ED50 p.o.; for Therapeutic index LD50/ED50 (electroshock): mice, p.o.
From the text: The anticonvulsive effect of the novel compounds was studied on white mice weighing 20 to 25 g through the inhibition of the spasm developed by electroshock. The electroshock was provoked by means of corneal electrodes with a current intensity of 45 mA. The frequency of the current used was equivalent to 50 Hz, and the duration of each electroshock was 0.4 sec. The complete inhibition of the tonic extension of the hind limbs was taken as criterium of the anticonvulsive effect. The compounds to be tested were administered orally 1 hour prior to the electroshock.

[6] = Anticonvulsive effect, inhibition of spasms provoked by pentamethylenetetrazole; type: in vivo, white mice; details: for ED50: Mus musculus, white mice, oral 1 hour before pentamethylenetetrazole 125 mg/kg i.p., read-out: Inhibition of spasms provoked by pentamethylenetetrazole ED50 p.o.; for Therapeutic index LD50/ED50 (pentamethylenetetrazole): mice, p.o.
Experimental: The anticonvulsive effect of the compounds was also studied through the inhibition of the spasm provoked by pentamethylenetetrazole [6,7,8,9-tetrahydro-5H-tetrazoloazepine]. 125 mg/kg doses of pentamethylenetetrazole were administered intraperitoneally into white mice divided into groups consisting of 6 animals and the tonic extension spasms of the hind limbs were registered. The compounds to be tested were administered orally 1 hour before the injection of pentamethylenetetrazole.

[7] = Tetrabenazine antagonism; type: in vivo; details: for ED50: Mus musculus, oral 30 minutes before tetrabenazine 50 mg/kg i.p., counts at 30, 60, 90 and 120 minutes, read-out: Tetrabenazine antagonism ED50 p.o.; for Therapeutic index LD50/ED50 (tetrabenazine antagonism): p.o.
Experimental: The tetrabenazine antagonizing effect of the novel compounds was tested on groups consisting of 10 mice each. The animals belonging to the control group received an oral dosage of 20 ml/kg of 0.9 percent aqueous sodium chloride solution, whereas the other animals were treated orally with the compound to be tested. 30 minutes after the introduction of the active agent or the vehicle, 50 mg/kg of tetrabenazine [3-isobutyl-9,10-dimethoxy-1,2,3,4,6,7-hexahydrobenzo[a]quinolizine-2-one]were administered intraperitoneally. The animals with closed palpebral fissures were counted 30, 60, 90 and 120 minutes after the administration of tetrabenazine. The data obtained in the individual measuring times were added, and the percentage inhibition related to the controls was calculated. Amitriptylin was employed as reference compound.

[8] = mice, oral 1 hour before hexobarbital 40 mg/kg i.v., 150 percent prolongation of sleeping time = positive response

Compound	LD50 [1] [mg/kg]	ED50 [2] [mg/kg]	Therapeutic index LD50/ED50 (analgesic effect) [2]	ED50 [3, 8] [mg/kg]	Therapeutic index LD50/ED50 (narcosis potentiating effect) ([3]; mice)	ED50 [4] [mg/kg]	ED50 [5] [mg/kg]	Therapeutic index LD50/ED50 (electroshock) [5]	ED50 [6] [mg/kg]	Therapeutic index LD50/ED50 (pentamethylenetetrazole) [6]	ED50 [7] [mg/kg]	Therapeutic index LD50/ED50 (tetrabenazine antagonism) [7]	also measured
CCCCCC1=Nc2cnc3ccccc3c2N(C(C)=O)N1 [Example 1, 1-acetyl-3-amyl-1,2-dihydro-as-triazino[5,6-c]quinoline]	2000	125	16	200	10	100	–	–	–	–	–	–	Therapeutic index LD50/ED50 (antiphlogistic effect) [4]: 20
CC(=O)N1C(c2ccccc2)=NNc2c1cnc1ccccc21 [Example 3, 4-Acetyl-3-phenyl-1,4-dihydro-as-triazino[5,6-c]quinoline]	2000	–	–	150	13.3	–	–	–	–	–	–	–	–
CCCCC1=Nc2cnc3ccccc3c2N(C(C)=O)N1 [Example 6, 1-Acetyl-3-butyl-1,2-dihydro-as-triazino[5,6-c]quinoline]	2000	320	6	125	16	36	160	12.5	90	22,2	–	–	Therapeutic index LD50/ED50 (antiphlogistic effect) [4]: 55
CCCCCCCCC1=Nc2cnc3ccccc3c2N(C(C)=O)N1 [Example 7, 1-Acetyl-3-octyl-1,2-dihydro-as-triazino[5,6-c]quinoline]	2000	–	–	–	–	–	450	4.4	350	5,7	–	–	–
CC(=O)N1NC(CC(C)C)=Nc2cnc3ccccc3c21 [Example 8, 1-Acetyl-3-isobutyl-1,2-dihydro-as-triazino[5,6-c]quinoline]	2000	–	–	70	28.5	–	200	10	72	27,8	20	100	–
CC(=O)N1NC(C(C)(C)C)=Nc2cnc3ccccc3c21 [Example 9, 1-Acetyl-3-tert.-butyl-1,2-dihydro-as-triazino[5,6-c]quinoline]	2000	–	–	–	–	–	–	–	165	12	–	–	–
CC(=O)N1NC(CCC(C)C)=Nc2cnc3ccccc3c21 [Example 10, 1-Acetyl-3-(3'-methyl-1'-butyl)-1,2-dihydro-as-triazino[5,6-c]quinoline]	2000	100	20	100	20	200	–	–	–	–	14.5	138	Therapeutic index LD50/ED50 (antiphlogistic effect) [4]: 10
CCC(CC)C1=Nc2cnc3ccccc3c2N(C(C)=O)N1 [Example 11, 1-Acetyl-3-[1'-ethyl-1'-propyl]-1,2-dihydro-as-triazino[5,6-c]quinoline]	–	–	–	–	–	–	–	–	–	–	54	37	–
CN(C)CCC=C1c2ccccc2CCc2ccccc21 [amitriptylin, 5-(3-dimethylaminopropylidene)-10,11-dihydro-5H-dibenzo[a,d]cycloheptene, reference compound]	–	–	–	–	–	–	–	–	–	–	12	19	–
CCCC(C)(COC(N)=O)COC(N)=O [meprobamate, 2-methyl-2-propylpropane-1,3-diol dicarbamate, reference compound]	–	–	–	–	4.2	–	–	–	–	–	–	–	ED50 ([3]; po): 260 mg/kg
CC(=O)Nc1ccc(O)cc1 [paracetamole, p-hydroxyacetanilide, reference compound]	540	180	3	–	–	–	–	–	–	–	–	–	–
CCCCC1C(=O)N(c2ccccc2)N(c2ccccc2)C1=O [phenylbutazone, 4-butyl-1,2-diphenylpyrazolidine-3,5-dione, reference compound]	–	60	–	–	–	100	–	–	–	–	–	–	–
CN1C(=O)OC(C)(C)C1=O [trimethadione, 3,5,5-trimethyloxazolidine-2,4-dione, reference compound]	2050	–	–	–	–	–	400	5.3	490	4,3	–	–	–
